From PMC9067983, “Identification of highly selective type II kinase inhibitors with chiral peptidomimetic tails” (Journal of Enzyme Inhibition and Medicinal Chemistry, 2022)
Where a SMILES comes first, the peptide text is derived from it. [ ]: non-standard residue; d: D form. The star is where a group is joined. X1 = Cc1ccc(Nc2ncc3c(n2)N(C)C(=O)N(c2cc(C(=O)*)ccc2C)C3)cn1; Aib = CC(C)(N)C(=O)O

How the values were obtained:
Assay in all cases: kinase selectivity profiling
Type in all cases: biochemical
Conditions in all cases: 10µM ATP, read-out: % inhibition (relative to DMSO)
MEK1 = biological target: T1, MEK1 (Homo sapiens, UniProt Q02750)
T1 construct: purchased Reaction Biology Corp
Protocol: (§1) Full panel kinase profiling and kinase IC50 measurement were performed by using Reaction Biology Corp. (San Diego, USA).

Abl1 = biological target: T2, Abl1 (Homo sapiens, UniProt P00519)
T2 construct: purchased Reaction Biology Corp
Protocol: as §1

ALK2/ACVR1 = biological target: T3, ALK2/ACVR1 (Homo sapiens, UniProt Q04771)
T3 construct: purchased Reaction Biology Corp
Protocol: as §1

CDK1/cyclin E = biological target: T4, CDK1/cyclin E (Homo sapiens, UniProt P06493)
T4 construct: purchased Reaction Biology Corp
Protocol: as §1

ARK5/NUAK1 = biological target: T5, ARK5/NUAK1 (Homo sapiens, UniProt O60285)
T5 construct: purchased Reaction Biology Corp
Protocol: as §1

WNK3 = biological target: T6, WNK3 (Homo sapiens, UniProt Q9BYP7)
T6 construct: purchased Reaction Biology Corp
Protocol: as §1

PKCa = biological target: T7, PKCa (Homo sapiens, UniProt P17252)
T7 construct: purchased Reaction Biology Corp
Protocol: as §1

CAMK1g = biological target: T8, CAMK1g (Homo sapiens, UniProt Q96NX5)
T8 construct: purchased Reaction Biology Corp
Protocol: as §1

OSR1/OXSR1 = biological target: T9, OSR1/OXSR1 (Homo sapiens, UniProt O95747)
T9 construct: purchased Reaction Biology Corp
Protocol: as §1

PKMYT1 = biological target: T10, PKMYT1 (Homo sapiens, UniProt Q99640)
T10 construct: purchased Reaction Biology Corp
Protocol: as §1

DYRK1B = biological target: T11, DYRK1B (Homo sapiens, UniProt Q9Y463)
T11 construct: purchased Reaction Biology Corp
Protocol: as §1

Lck = biological target: T12, Lck (Homo sapiens, UniProt P06239)
T12 construct: purchased Reaction Biology Corp
Protocol: as §1

GRK7 = biological target: T13, GRK7 (Homo sapiens, UniProt Q8WTQ7)
T13 construct: purchased Reaction Biology Corp
Protocol: as §1

WNK2 = biological target: T14, WNK2 (Homo sapiens, UniProt Q9Y3S1)
T14 construct: purchased Reaction Biology Corp
T14 sequence (Q9Y3S1 whole entry): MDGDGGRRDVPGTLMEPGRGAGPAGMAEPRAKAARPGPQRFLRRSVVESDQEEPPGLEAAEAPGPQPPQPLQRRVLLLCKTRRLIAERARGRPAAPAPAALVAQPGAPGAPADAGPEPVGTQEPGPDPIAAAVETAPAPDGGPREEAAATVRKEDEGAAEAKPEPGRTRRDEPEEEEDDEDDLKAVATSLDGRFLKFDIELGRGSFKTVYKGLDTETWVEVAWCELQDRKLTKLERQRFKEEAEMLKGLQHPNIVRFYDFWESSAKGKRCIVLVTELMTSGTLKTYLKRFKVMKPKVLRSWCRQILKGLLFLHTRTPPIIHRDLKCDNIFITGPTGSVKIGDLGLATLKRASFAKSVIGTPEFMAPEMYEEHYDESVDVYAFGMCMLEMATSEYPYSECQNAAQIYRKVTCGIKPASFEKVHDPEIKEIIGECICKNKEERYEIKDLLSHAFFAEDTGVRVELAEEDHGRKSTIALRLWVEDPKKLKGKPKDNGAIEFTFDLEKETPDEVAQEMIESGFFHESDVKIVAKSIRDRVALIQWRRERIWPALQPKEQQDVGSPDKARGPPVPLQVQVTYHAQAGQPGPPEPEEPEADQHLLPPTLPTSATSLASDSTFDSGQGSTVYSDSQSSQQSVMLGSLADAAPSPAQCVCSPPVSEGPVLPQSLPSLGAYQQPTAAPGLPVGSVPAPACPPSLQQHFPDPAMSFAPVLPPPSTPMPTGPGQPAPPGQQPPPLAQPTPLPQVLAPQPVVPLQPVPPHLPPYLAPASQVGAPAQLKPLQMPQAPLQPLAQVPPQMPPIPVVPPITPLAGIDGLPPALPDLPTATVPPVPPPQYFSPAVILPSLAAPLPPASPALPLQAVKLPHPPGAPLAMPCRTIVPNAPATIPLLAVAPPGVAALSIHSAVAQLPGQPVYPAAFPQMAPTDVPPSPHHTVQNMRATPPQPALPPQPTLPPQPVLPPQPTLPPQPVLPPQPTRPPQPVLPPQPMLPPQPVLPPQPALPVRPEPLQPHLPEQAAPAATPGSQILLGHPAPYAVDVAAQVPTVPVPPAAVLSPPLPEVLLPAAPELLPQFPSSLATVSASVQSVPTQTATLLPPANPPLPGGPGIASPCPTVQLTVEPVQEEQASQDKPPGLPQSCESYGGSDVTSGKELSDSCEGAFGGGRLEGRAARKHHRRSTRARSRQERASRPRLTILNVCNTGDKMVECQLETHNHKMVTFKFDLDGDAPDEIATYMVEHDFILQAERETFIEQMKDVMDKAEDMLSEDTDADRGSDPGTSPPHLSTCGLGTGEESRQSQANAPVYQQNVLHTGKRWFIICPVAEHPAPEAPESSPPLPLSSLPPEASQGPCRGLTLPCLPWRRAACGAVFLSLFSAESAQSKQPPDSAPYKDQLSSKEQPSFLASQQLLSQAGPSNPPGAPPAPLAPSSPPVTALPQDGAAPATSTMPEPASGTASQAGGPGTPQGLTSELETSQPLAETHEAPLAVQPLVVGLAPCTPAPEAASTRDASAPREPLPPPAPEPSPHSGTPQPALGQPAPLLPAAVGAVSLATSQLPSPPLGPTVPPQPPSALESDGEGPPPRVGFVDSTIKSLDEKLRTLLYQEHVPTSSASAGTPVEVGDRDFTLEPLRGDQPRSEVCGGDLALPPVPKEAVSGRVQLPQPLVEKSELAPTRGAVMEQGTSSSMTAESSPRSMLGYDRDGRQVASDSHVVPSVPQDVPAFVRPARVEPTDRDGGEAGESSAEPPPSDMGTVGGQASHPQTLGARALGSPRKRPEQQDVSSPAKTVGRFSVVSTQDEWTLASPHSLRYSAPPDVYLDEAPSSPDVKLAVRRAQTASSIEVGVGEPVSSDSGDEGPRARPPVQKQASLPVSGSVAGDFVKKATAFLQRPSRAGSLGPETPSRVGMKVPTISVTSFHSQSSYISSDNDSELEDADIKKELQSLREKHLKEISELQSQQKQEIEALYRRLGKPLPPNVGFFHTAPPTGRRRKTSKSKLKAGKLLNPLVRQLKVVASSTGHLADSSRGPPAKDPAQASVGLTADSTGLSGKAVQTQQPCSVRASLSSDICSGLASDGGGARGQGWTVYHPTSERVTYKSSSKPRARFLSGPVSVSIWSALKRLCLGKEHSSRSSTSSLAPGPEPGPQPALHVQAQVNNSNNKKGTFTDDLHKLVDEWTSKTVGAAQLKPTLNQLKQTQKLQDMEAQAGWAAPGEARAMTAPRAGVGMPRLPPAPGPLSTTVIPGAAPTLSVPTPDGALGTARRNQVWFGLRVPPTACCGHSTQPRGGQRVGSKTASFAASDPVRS
Protocol: as §1

PLK4/SAK = biological target: T15, PLK4/SAK (Homo sapiens, UniProt O00444)
T15 construct: purchased Reaction Biology Corp
Protocol: as §1

FGFR1 = biological target: T16, FGFR1 (Homo sapiens, UniProt P11362)
T16 construct: purchased Reaction Biology Corp
T16 sequence (P11362 22-822): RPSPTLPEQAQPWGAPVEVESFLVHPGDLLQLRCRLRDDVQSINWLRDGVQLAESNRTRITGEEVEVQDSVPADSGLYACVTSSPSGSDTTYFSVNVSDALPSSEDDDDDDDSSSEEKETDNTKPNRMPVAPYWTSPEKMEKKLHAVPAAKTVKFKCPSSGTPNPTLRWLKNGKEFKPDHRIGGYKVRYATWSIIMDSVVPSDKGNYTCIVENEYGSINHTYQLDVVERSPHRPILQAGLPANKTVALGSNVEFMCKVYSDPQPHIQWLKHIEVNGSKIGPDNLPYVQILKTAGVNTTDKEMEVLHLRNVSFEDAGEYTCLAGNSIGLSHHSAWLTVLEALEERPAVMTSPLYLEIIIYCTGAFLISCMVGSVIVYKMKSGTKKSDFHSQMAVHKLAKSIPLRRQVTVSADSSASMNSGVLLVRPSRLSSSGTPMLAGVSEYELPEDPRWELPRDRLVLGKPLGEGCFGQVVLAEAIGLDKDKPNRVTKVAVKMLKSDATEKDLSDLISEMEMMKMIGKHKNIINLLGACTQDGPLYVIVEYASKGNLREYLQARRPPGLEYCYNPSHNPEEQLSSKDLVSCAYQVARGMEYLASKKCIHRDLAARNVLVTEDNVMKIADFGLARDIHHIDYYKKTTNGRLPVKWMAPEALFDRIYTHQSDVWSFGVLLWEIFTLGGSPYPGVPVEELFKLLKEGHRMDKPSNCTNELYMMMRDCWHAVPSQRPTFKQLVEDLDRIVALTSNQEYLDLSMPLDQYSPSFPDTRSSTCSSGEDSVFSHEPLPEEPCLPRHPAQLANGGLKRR
Protocol: as §1

NLK = biological target: T17, NLK (Homo sapiens, UniProt Q9UBE8)
T17 construct: purchased Reaction Biology Corp
Protocol: as §1

FAK/PTK2 = biological target: T18, FAK/PTK2 (Homo sapiens, UniProt Q05397)
T18 construct: purchased Reaction Biology Corp
Protocol: as §1

FGFR2 = biological target: T19, FGFR2 (Homo sapiens, UniProt P21802)
T19 construct: purchased Reaction Biology Corp
Protocol: as §1

CDK18/cyclin Y (PCTK3) = biological target: T20, CDK18/cyclin Y (PCTK3) (Homo sapiens, UniProt Q07002)
T20 construct: purchased Reaction Biology Corp
Protocol: as §1

CDK9/cyclin T1 = biological target: T21, CDK9/cyclin T1 (Homo sapiens, UniProt P50750)
T21 construct: purchased Reaction Biology Corp
Protocol: as §1

GRK5 = biological target: T22, GRK5 (Homo sapiens, UniProt P34947)
T22 construct: purchased Reaction Biology Corp
Protocol: as §1

p38b/MAPK11 = biological target: T23, p38b/MAPK11 (Homo sapiens, UniProt Q15759)
T23 construct: purchased Reaction Biology Corp
Protocol: as §1

SGK1 = biological target: T24, SGK1 (Homo sapiens, UniProt O00141)
T24 construct: purchased Reaction Biology Corp
Protocol: as §1

MARK4 = biological target: T25, MARK4 (Homo sapiens, UniProt Q96L34)
T25 construct: purchased Reaction Biology Corp
Protocol: as §1

MST2/STK3 = biological target: T26, MST2/STK3 (Homo sapiens, UniProt Q13188)
T26 construct: purchased Reaction Biology Corp
Protocol: as §1

ACK1 = biological target: T27, ACK1 (Homo sapiens, UniProt Q07912)
T27 construct: purchased Reaction Biology Corp
Protocol: as §1

IRAK4 = biological target: T28, IRAK4 (Homo sapiens, UniProt Q9NWZ3)
T28 construct: purchased Reaction Biology Corp
Protocol: as §1

GRK3 = biological target: T29, GRK3 (Homo sapiens, UniProt P35626)
T29 construct: purchased Reaction Biology Corp
Protocol: as §1

CDK5/P25 = biological target: T30, CDK5/P25 (Homo sapiens, UniProt Q00535)
T30 construct: purchased Reaction Biology Corp
Protocol: as §1

CDK5/p35 = biological target: T31, CDK5/p35 (Homo sapiens, UniProt Q00535)
T31 construct: purchased Reaction Biology Corp
Protocol: as §1

SGK3/SGKL = biological target: T32, SGK3/SGKL (Homo sapiens, UniProt Q96BR1)
T32 construct: purchased Reaction Biology Corp
Protocol: as §1

PIM1 = biological target: T33, PIM1 (Homo sapiens, UniProt P11309)
T33 construct: purchased Reaction Biology Corp
Protocol: as §1

RIPK4 = biological target: T34, RIPK4 (Homo sapiens, UniProt P57078)
T34 construct: purchased Reaction Biology Corp
T34 sequence (P57078 whole entry): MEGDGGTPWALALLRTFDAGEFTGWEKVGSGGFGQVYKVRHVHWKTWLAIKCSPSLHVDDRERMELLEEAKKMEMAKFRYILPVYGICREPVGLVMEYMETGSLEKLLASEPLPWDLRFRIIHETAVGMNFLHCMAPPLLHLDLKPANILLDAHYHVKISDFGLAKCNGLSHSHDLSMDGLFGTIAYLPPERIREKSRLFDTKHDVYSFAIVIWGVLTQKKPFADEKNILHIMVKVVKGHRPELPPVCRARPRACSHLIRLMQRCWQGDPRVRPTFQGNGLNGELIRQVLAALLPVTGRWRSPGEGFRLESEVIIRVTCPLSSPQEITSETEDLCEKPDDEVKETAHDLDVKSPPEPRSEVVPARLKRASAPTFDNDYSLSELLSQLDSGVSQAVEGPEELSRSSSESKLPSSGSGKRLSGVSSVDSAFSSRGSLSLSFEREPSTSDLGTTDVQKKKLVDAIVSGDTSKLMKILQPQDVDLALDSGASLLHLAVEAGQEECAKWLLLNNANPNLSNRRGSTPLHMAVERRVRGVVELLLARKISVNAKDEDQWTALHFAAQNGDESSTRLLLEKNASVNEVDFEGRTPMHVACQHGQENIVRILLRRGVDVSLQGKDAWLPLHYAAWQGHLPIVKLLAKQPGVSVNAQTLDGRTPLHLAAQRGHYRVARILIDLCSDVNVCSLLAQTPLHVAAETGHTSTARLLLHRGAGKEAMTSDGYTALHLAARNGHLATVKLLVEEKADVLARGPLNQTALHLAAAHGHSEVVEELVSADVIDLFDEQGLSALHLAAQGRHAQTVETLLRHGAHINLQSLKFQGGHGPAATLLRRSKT
Protocol: as §1

CDK9/cyclin K = biological target: T35, CDK9/cyclin K (Homo sapiens, UniProt P50750)
T35 construct: purchased Reaction Biology Corp
T35 sequence (P50750 whole entry): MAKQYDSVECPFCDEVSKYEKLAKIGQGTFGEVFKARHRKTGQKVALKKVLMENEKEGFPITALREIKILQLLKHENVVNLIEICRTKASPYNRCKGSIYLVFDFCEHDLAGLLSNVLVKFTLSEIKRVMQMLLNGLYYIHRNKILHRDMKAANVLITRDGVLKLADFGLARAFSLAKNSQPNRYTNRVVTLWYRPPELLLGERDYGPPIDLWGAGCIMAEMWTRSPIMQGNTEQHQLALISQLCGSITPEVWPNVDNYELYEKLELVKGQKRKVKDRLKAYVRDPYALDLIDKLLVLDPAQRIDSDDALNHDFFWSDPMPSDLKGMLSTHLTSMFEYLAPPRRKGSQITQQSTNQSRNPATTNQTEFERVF
T35 sequence (O75909 whole entry partner): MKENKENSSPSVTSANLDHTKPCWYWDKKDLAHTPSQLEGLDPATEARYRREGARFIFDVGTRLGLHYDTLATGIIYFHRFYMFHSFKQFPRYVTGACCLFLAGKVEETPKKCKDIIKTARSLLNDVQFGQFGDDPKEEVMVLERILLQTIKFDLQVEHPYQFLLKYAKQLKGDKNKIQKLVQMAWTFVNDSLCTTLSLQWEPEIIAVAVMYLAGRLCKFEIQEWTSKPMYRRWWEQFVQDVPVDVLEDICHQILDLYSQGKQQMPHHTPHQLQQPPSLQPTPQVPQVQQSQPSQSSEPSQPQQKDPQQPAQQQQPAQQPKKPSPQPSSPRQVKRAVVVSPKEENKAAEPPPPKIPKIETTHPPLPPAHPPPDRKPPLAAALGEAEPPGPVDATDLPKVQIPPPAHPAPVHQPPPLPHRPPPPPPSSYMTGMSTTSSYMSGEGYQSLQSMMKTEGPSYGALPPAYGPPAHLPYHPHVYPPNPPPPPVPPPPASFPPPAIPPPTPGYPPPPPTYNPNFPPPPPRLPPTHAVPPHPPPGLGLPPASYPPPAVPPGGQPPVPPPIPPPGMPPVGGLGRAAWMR
Protocol: as §1

CAMK2d = biological target: T36, CAMK2d (Homo sapiens, UniProt Q13557)
T36 construct: purchased Reaction Biology Corp
Protocol: as §1

PKN3/PRK3 = biological target: T37, PKN3/PRK3 (Homo sapiens, UniProt Q6P5Z2)
T37 construct: purchased Reaction Biology Corp
Protocol: as §1

MEK5 = biological target: T38, MEK5 (Homo sapiens, UniProt Q13163)
T38 construct: purchased Reaction Biology Corp
Protocol: as §1

NEK7 = biological target: T39, NEK7 (Homo sapiens, UniProt Q8TDX7)
T39 construct: purchased Reaction Biology Corp
Protocol: as §1

CSK = biological target: T40, CSK (Homo sapiens, UniProt P41240)
T40 construct: purchased Reaction Biology Corp
Protocol: as §1

WNK1 = biological target: T41, WNK1 (Homo sapiens, UniProt Q9H4A3)
T41 construct: purchased Reaction Biology Corp
Protocol: as §1

CHK1 = biological target: T42, CHK1 (Homo sapiens, UniProt O14757)
T42 construct: purchased Reaction Biology Corp
Protocol: as §1

LOK/STK10 = biological target: T43, LOK/STK10 (Homo sapiens, UniProt O94804)
T43 construct: purchased Reaction Biology Corp
Protocol: as §1

Cc1ccc(Nc2ncc3c(n2)N(C)C(=O)N(c2cc(C(=O)N[C@H](C(=O)N4CCC[C@H]4C(=O)NC(C)(C)C(=O)N[C@@H](CC(C)C)C(=O)N(C)C)C(C)C)ccc2C)C3)cn1 [7a, (S)-N-(1-(((S)-1-(dimethylamino)-4-methyl-1-oxopentan-2-yl)amino)-2-methyl-1-oxopropan-2-yl)-1-((4-methyl-3-(1-methyl-7-((6-methylpyridin-3-yl)amino)-2-oxo-1,4-dihydropyrimido[4,5-d]pyrimidin-3(2H)-yl)benzoyl)-L-valyl)pyrrolidine-2-carboxamide] (X1-VP[Aib]L-NMe2)
inhibition at 1 µM (MEK1): 8%
inhibition at 1 µM (Abl1): 63%
inhibition at 1 µM (ALK2/ACVR1): 2%
inhibition at 1 µM (CDK1/cyclin E): 0%
inhibition at 1 µM (ARK5/NUAK1): 9%
inhibition at 1 µM (WNK3): 19%
inhibition at 1 µM (PKCa): 0%
inhibition at 1 µM (CAMK1g): 7%
inhibition at 1 µM (OSR1/OXSR1): 6%
inhibition at 1 µM (PKMYT1): 8%
inhibition at 1 µM (DYRK1B): 11%
inhibition at 1 µM (Lck): 94%
inhibition at 1 µM (GRK7): 0%
inhibition at 1 µM (WNK2): 7%
inhibition at 1 µM (PLK4/SAK): 5%
inhibition at 1 µM (FGFR1): 37%
inhibition at 1 µM (NLK): 3%
inhibition at 1 µM (FAK/PTK2): 5%
inhibition at 1 µM (FGFR2): 12%
inhibition at 1 µM (CDK18/cyclin Y (PCTK3)): 4%
inhibition at 1 µM (CDK9/cyclin T1): 0%
inhibition at 1 µM (GRK5): 1%
inhibition at 1 µM (p38b/MAPK11): 13%
inhibition at 1 µM (SGK1): 0%
inhibition at 1 µM (MARK4): 0%
inhibition at 1 µM (MST2/STK3): 7%
inhibition at 1 µM (ACK1): 0%
inhibition at 1 µM (IRAK4): 4%
inhibition at 1 µM (GRK3): 0%
inhibition at 1 µM (CDK5/P25): 0%
inhibition at 1 µM (CDK5/p35): 6%
inhibition at 1 µM (SGK3/SGKL): 6%
inhibition at 1 µM (PIM1): 2%
inhibition at 1 µM (RIPK4): 15%
inhibition at 1 µM (CDK9/cyclin K): 0%
inhibition at 1 µM (CAMK2d): 0%
inhibition at 1 µM (PKN3/PRK3): 8%
inhibition at 1 µM (MEK5): 50%
inhibition at 1 µM (NEK7): 2%
inhibition at 1 µM (CSK): 44%
inhibition at 1 µM (WNK1): 0%
inhibition at 1 µM (CHK1): 0%
inhibition at 1 µM (LOK/STK10): 3%
